The assay relates to miRNAs in diaphragm muscle of mdx mice. Nature of the assay: qRT-PCR of individual miRNAs in diaphragm, validation set (4-month treatment, treadmill-run mdx mice). The class given is in vivo, mouse. The conditions noted are these: 6 months of age, prednisolone 5 mg/kg, vamorolone 45 mg/kg; for expression of the other seven inflammatory miRNAs: P≤0.05. The text has this: Archival muscle samples (diaphragm) from two separate preclinical studies were obtained, with each trial showing a significant benefit from both prednisolone and vamorolone drug treatments (23). Prednisolone was used because it is the active form of prednisone, the current DMD standard of care. The first, “discovery set” of diaphragm muscles was from a prophylactic trial design where 2-week old (postnatal day 15) mdx or wild type control mice received oral dosing for 6 weeks with vehicle (cherry syrup), prednisolone (5 mg/kg), or vamorolone (15 mg/kg) as previously reported (23). The second, “validation set” of diaphragm muscles was from an extended trial in older mice where mdx or wild type mice were subjected to treadmill running to unmask mild phenotypes. Mice in this validation set were treated with either vehicle, prednisolone (5 mg/kg) or vamorolone (45 mg/kg) for four months beginning at two months of age (23). At the endpoint of each trial, diaphragm muscles were harvested and frozen in liquid nitrogen-cooled isopentane.
Specific miRNAs were quantified in the validation set of samples using individual TaqMan assays specific for each miRNA (ThermoFisher; Carlsbad, Calif.) according to the manufacturer's protocol. Assay IDs used include 000468, 001346, 002455, 001280, 000528, 002352, 000464, 002509, and 002248. Total RNA was converted to cDNA using multiplexed RT primers and High Capacity cDNA Reverse Transcription Kit (ThermoFisher; Carlsbad, Calif.). The cDNA was pre-amplified using TaqMan PreAmp Master Mix (ThermoFisher; Carlsbad, Calif.). The miRNAs were then quantified using individual TaqMan assays on an ABI QuantStudio 7 real time PCR machine (Applied Biosystems; Foster City, Calif.).
In the discovery set experiments, levels of each miRNA were quantified in TaqMan low-density arrays using ThermoFisher Cloud software with the Relative Quantification Application (ThermoFisher; Carlsbad, Calif.) tool. Data was analyzed by ANOVA with post-hoc comparison of each group to the mdx vehicle-treated group. […] A P-value of P≤0.05 was set as the significance threshold, without adjustment for multiple comparisons. To reduce false-positive discovery in this setting, an evidence-based approach was used to identify efficacy associated miRNAs where 1) results from the multiple groups were cross-referenced, and 2) all candidate miRNAs identified in this discovery set were then assayed in a separate validation set of mice. For the validation set experiments, levels of each individual miRNA were assayed in samples from a second, independent preclinical trial in adult mdx mice. Data from individual TaqMan Assays was quantified using QuantStudio Real-Time PCR version 1.3 software (Applied Biosystems; Foster City, Calif.). […]
On the technique in general: Real-time PCR tracks product formation cycle by cycle.

In the case of `C[C@]12C=CC(=O)C=C1CC[C@@H]1[C@@H]2[C@@H](O)C[C@@]2(C)[C@H]1CC[C@]2(O)C(=O)CO` [prednisolone], the “response of miR-301a to drug treatment” value is given as “did not respond to drug treatment” and the “expression of the other seven inflammatory miRNAs” value is listed as “significant decrease towards healthy wild type levels”.
Consider `C[C@@H]1C[C@H]2[C@@H]3CCC4=CC(=O)C=C[C@]4(C)C3=CC[C@]2(C)[C@@]1(O)C(=O)CO` [vamorolone], for which the “response of miR-301a to drug treatment” value is “did not respond to drug treatment” and the “expression of the other seven inflammatory miRNAs” value is listed as “significant decrease towards healthy wild type levels”.

(Values after patent US12281304B2, “Compositions and methods for treating and preventing muscular disorders and dystrophies, steroid side effects, and inflammation” (Children's National Medical Center, priority 2018, dated 2025).)
